Test results from ChEMBL document CHEMBL1201862, “PubChem BioAssay data set” (2004).
Activity calls are given as the source filed them.

Key:
[1] = molecular target: T1, Tyrosine-protein phosphatase non-receptor type 7 (Homo sapiens, UniProt P35236); assay: inhibitors of human HePTP phosphatase, […], biochemical, absorbance, leukemia target (AID 521); assay type: functional
T1 sequence (P35236 whole entry): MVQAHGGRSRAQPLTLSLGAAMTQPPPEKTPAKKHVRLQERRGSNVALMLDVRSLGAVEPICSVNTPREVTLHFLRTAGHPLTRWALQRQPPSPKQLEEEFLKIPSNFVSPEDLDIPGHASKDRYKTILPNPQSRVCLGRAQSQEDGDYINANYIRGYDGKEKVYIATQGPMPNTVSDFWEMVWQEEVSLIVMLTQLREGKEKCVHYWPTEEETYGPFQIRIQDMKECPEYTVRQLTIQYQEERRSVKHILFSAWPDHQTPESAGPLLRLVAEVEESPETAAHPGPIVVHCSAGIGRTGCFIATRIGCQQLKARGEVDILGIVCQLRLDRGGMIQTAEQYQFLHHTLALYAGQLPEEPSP

[2] = inhibitors of intracellular T. cruzi replication, confirmation, NIH3T3 host cells, beta-gal luminescence (AID 2044); assay type: functional, cell-based;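 also: intracellular parasites grown in NIH/3T3 mouse fibroblasts as host cells; luminescent beta-galactosidase reporter signal from transgenic T. cruzi replicating inside host cells; inhibitors lower the luminescence signal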
[3] = cytotoxicity toward NIH3T3 fibroblasts, dose response, counter-screen, cell-based, ATP luminescence, mouse fibroblasts (AID 2010); assay type: functional; details: NIH3T3;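 also: cells exposed to compound for about 90 hours before reading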
[4] = molecular target: Heat shock protein HSP 90-alpha (Homo sapiens, UniProt P07900); assay: Luminescence-based dose response biochemical high throughput screening assay for inhibitors of the Heat Shock Protein 90 (HSP90). [Related pubchem assays: 1831 (Summary AID.), 1846 (Confirmation screen.), 1789 (Primary screen.)]
[5] = molecular target: T2, Microphthalmia-associated transcription factor (Homo sapiens, UniProt O75030); assay: TRPM1 promoter luciferase signal decrease, dose response, MITF inhibitor project, cell-based, SK-MEL-5, cherry-picked, set 3 (AID 493073); assay type: functional
T2 sequence (O75030 whole entry): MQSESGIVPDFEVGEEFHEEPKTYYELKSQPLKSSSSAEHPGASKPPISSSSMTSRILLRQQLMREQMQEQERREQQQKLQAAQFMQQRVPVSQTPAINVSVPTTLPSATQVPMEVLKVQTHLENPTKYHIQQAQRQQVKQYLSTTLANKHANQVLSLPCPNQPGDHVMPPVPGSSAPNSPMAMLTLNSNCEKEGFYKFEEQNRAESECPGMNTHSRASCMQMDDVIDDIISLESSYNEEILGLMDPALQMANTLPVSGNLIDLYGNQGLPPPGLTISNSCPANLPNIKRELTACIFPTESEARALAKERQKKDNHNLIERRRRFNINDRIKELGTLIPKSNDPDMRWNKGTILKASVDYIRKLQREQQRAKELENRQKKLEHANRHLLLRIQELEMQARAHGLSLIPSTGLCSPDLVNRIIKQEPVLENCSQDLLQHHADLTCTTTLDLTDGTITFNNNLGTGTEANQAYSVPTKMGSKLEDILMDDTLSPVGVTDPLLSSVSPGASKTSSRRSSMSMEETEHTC

[6] = molecular target: T3, Apoptotic protease-activating factor 1 (Homo sapiens, UniProt O14727); assay type: functional
T3 sequence (O14727 whole entry): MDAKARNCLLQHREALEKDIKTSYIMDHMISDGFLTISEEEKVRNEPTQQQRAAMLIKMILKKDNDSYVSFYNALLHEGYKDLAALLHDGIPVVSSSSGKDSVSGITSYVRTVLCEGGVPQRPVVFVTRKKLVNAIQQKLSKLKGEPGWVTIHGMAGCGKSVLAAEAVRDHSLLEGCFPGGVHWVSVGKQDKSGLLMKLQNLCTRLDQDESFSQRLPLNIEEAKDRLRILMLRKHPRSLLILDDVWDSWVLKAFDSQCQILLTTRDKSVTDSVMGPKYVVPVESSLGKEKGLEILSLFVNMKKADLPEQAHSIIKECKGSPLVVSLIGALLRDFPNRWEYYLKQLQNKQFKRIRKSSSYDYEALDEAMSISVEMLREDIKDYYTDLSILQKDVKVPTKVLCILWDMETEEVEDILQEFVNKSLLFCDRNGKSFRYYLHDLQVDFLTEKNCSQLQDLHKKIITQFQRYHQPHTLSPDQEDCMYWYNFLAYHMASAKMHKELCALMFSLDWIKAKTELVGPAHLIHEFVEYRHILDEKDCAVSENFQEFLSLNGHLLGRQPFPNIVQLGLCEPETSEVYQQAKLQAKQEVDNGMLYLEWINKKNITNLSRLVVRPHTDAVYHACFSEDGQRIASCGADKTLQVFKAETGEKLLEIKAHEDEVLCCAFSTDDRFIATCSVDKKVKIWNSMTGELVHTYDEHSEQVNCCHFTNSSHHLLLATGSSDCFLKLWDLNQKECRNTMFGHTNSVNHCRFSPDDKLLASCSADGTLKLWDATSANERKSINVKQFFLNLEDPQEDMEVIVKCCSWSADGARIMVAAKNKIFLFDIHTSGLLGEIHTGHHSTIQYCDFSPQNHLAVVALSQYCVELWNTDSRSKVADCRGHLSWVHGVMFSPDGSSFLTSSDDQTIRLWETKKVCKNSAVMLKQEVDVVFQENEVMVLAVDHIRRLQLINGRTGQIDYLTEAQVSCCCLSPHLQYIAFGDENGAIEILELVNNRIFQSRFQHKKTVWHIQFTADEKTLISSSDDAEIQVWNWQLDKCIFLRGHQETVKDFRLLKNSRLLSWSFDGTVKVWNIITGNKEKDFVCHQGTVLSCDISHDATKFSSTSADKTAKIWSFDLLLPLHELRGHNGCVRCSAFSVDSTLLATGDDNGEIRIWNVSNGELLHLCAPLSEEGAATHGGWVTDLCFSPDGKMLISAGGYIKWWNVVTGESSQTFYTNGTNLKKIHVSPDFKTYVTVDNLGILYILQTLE

[7] = TRPM1 promoter luciferase reporter signal decrease, dose response, MITF inhibitor project, cell-based, SK-MEL-5, dry powder, set 9 (AID 651588); assay type: functional
[8] = A375 melanoma cell viability loss, dose response, counter-screen for MITF inhibitor project, CellTiter-Glo luminescence, dry powder, set 4 (AID 624364); assay type: functional, cell-based; details: A-375;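 also: A375 melanoma cells are MITF independent so this is a counter screen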
[9] = A375 melanoma cell cytotoxicity, dose response, counter-screen for MITF inhibitor project, CellTiter-Glo luminescence, dry powder, set 7 (AID 624490); assay type: functional, cell-based; details: A-375
[10] = MITF Orthogonal Assay: MALME3 CTG Assay Measured in Cell-Based System Using Plate Reader - 2084-04_Inhibitor_Dose_DryPowder_Activity_Set6.; assay type: functional; details: MALME-3
[11] = SK-MEL-5 parental cell viability reduction, dose response, orthogonal assay for MITF inhibitor project, CellTiter-Glo luminescence, dry powder, set 8 (AID 651586); assay type: functional, cell-based
[12] = MALME3 melanoma cell viability reduction, dose response, orthogonal assay for MITF inhibitor project, CellTiter-Glo luminescence, dry powder, set 5 (AID 651584); assay type: functional, cell-based; details: MALME-3
[13] = SK-MEL-5 parental line viability, dose response, MITF inhibitor project, cell-based, CellTiter-Glo, dry powder, set 6 (AID 624429); assay type: functional
[14] = MITF Orthogonal Assay: SK-MEL-5 CTG Assay Measured in Cell-Based System Using Plate Reader - 2084-02_Inhibitor_Dose_DryPowder_Activity_Set5.; assay type: functional
[15] = A375 melanoma cell cytotoxicity, dose response, counter-screen for MITF inhibitor project, CellTiter-Glo luminescence, dry powder, set 6 (AID 624488); assay type: functional, cell-based; details: A-375
[16] = A375 melanoma cell viability loss, dose response, counter-screen for MITF modulator project, CellTiter-Glo luminescence, dry powder, set 9 (AID 651591); assay type: functional, cell-based; details: A-375
[17] = MITF Measured in Cell-Based System Using Plate Reader - 2084-01_Inhibitor_Dose_DryPowder_Activity_Set6.; assay type: functional
[18] = A375 melanoma cell cytotoxicity, dose response, counter-screen for MITF inhibitor project, CellTiter-Glo luminescence, dry powder, set 2 (AID 624489); assay type: functional, cell-based; details: A-375;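 also: actives are compounds lowering A375 viability meaning general cytotoxicity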
[19] = MITF Measured in Cell-Based System Using Plate Reader - 2084-01_Inhibitor_Dose_DryPowder_Activity_Set7.; assay type: functional
[20] = molecular target: Glyceraldehyde-3-phosphate dehydrogenase (Homo sapiens, UniProt P04406)
HT-1080 = assay: cytotoxicity in HT1080 fibrosarcoma cells, cell-based, fluorescence readout (AID 620); assay type: functional; details: Homo sapiens
cells = assay type: functional

Sequence of Glyceraldehyde-3-phosphate dehydrogenase (P04406 whole entry): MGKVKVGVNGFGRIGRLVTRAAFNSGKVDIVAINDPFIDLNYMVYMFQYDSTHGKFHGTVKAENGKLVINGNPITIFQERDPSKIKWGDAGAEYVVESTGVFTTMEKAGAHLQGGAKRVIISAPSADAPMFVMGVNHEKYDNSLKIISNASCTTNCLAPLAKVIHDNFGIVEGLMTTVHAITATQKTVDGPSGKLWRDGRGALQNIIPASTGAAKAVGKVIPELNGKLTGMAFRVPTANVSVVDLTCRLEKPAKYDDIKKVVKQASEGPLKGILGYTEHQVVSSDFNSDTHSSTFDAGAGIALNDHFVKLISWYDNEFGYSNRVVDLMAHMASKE

In the case of O=C(Nc1nncs1)c1c(F)c(F)c(F)c(F)c1F, the IC50 [1] is reported as > 100 µM (not active).
With CC(=O)Nc1ccc(OS(=O)(=O)c2ccc([N+](=O)[O-])cc2)cc1 the EC50 [2] was 1.56 µM (active), the EC50 [3] was > 60 µM (not active) and the IC50 [4] was 3.75 µM (active).
With CCN1CCN(C2=C(NS(=O)(=O)c3ccc(Br)cc3)C(=O)c3ccccc3C2=O)CC1 the AC50 [5] was 5.7 µM (active), the IC50 [6] was 24.3 µM (active) and the AC50 [7] was 17.3 µM (active). For the same compound, the AC50 [8] was > 70 µM (inactive), the AC50 [9] was > 70 µM (inactive) and the AC50 [10] was 20.9 µM (active). The AC50 [11] was 48.4 µM (active), the AC50 [12] was 20.9 µM (active) and the AC50 [13] was 46.2 µM (active). The AC50 [14] was 34.3 µM (active), the AC50 [15] was 55.1 µM (active) and the AC50 [16] was > 70 µM (inactive). For the same compound, the AC50 [17] was 8.92 µM (active), the AC50 [18] was > 70 µM (inactive) and the AC50 [19] was 4.5 µM (active).
With CCOc1ccc(OCc2ccc(C(=O)OCc3ccccn3)o2)cc1 the IC50 [20] was > 100 µM (not active), the EC50 (HT-1080) was > 50 µM (not active) and the IC50 (cells) was 36 µM (active).
